Measurements as given in patent US11896591B2, “Compositions and methods for preparing and using mitochondrial uncouplers” (UNIVERSITY OF VIRGINIA PATENT FOUNDATION, priority 2017, dated 2024).
“Also recorded” adds a separate entry of the source.

Key:
whole cells = assay: Oxygen consumption rate (OCR) in whole cells, Seahorse XF-24 Flux Analyzer; assay type: cell-based; conditions: for EC50: binned EC50 values, increase in oxygen consumption rate in whole cells
Method: Biological activities of the compounds synthesized is determined by determining increase in oxygen consumption rate (OCR).
OCR is measured using a Seahorse XF-24 Flux Analyzer (Seahorse Biosciences, North Billerica, MA). NMuLi, C2C12, and L6 cells are seeded in a Seahorse 24-well tissue culture plate at a density of 3.5×10^4 cells/well, isolated cardiomyocytes at a density of 4×10^4 cells/well, and human primary fibroblasts at a density of 1.1×10^4 cells/well. The cells are then allowed to adhere for 24 h. […] Compounds are injected during the assay and OCR is measured using 2 min measurement periods.
2-3 wells are used per condition and averaged over three plates (n=6-9). Statistical significance is determined by two-way ANOVA with Bonferroni's posttest.

[1] = system: Diet-induced Obesity Mouse Model; assay: Diet Induced Obesity Mouse Study; assay type: in vivo, Male C57B/6J mice
Method: Male C57B/6J mice aged 3 months (n=6) are assigned to one of three treatment groups: normal chow diet (Chow), western diet (WD) or western diet containing compound 4c (WD+4c). Mice fed WD and WD 4c are individually housed and given 3 grams of fresh food daily. WD+4c contained a dose of 4c equivalent to 50 mg/kg/day. For all treatments pre-weighed food is placed in cages and food intake is calculated daily. Fat and lean mass are measured by EchoMRI. Fat and lean mass for mice given the high fat Western Diet or the Western Diet with the compound 4c was determined by Echo MRI and shown in FIG. 6.

[2] = system: STAM mouse model of fatty liver disease; assay: STAM mouse model of fatty liver disease (NALFD criteria: steatosis, inflammation, ballooning); assay type: in vivo
[3] = patients consuming ˜300 mg/d, over several months, without changes in food intake; cited from earlier work

| EC50 (whole cells) [µM] | Compound | other results |
| --- | --- | --- |
| < 5 | Fc1cccc(Nc2nc3nonc3nc2Nc2ccccc2F)c1 [Compound 4c, N^5-(2-fluorophenyl)-N^6-(3-fluorophenyl)-[1,2,5]oxadiazolo[3,4-b]pyrazine-5,6-diamine] | Oxygen consumption rate as a function of drug dose (whole cells; compared with BAM15 or FCCP (FIG. 1, FIG. 2)): higher oxygen consumption rate than mitochondrial uncouplers, BAM15 or FCCP; also recorded: consistently high oxygen consumption rate than the mitochondrial uncoupler BAM15; Glucose tolerance test ([1]; WD + 50 mg/kg/day compound 4c vs WD): significantly improved glucose tolerance; Lean mass ([1]; WD + 4c 50 mg/kg/day vs WD, EchoMRI): without losing lean mass; also recorded: substantially the same lean mass; Food intake ([1]; WD + 4c vs WD): without a significant change in food intake; Fat mass ([1]; Western Diet (WD) + 4c 50 mg/kg/day vs WD, EchoMRI): gain less fat mass; also recorded: gained significantly less fat mass; Anti-inflammatory effects ([2]; STAM mouse model (FIG. 3)): anti-inflammatory effects; Combined NALFD score ([2]; based on the steatosis, inflammation and ballooning assays, vs BAM15): significantly lower NALFD score than BAM15 |
| – | O=[N+]([O-])c1ccc(O)c([N+](=O)[O-])c1 [DNP, 2,4-dinitrophenol] | Weight loss [3]: 1.5 pounds per week |
| > 20 | COc1ccc(Nc2nc3nc(C(F)(F)F)[nH]c3nc2Nc2ccc(OC)cc2)cc1 [Compound 12n, N^5,N^6-bis(4-methoxyphenyl)-2-(trifluoromethyl)-1H-imidazo[4,5-b]pyrazine-5,6-diamine] | – |
| < 5 | Fc1ccccc1Nc1nc2nc(C(F)(F)F)[nH]c2nc1Nc1cccc(C(F)(F)F)c1F [Compound 12t, N^5-(2-fluorophenyl)-N^6-(2-fluoro-3-(trifluoromethyl)phenyl)-2-(trifluoromethyl)-1H-imidazo[4,5-b]pyrazine-5,6-diamine] | – |
| < 5 | CCOc1cccc(Nc2nc3nonc3nc2Nc2ccccc2F)c1 [Compound 4n, N^5-(3-ethoxyphenyl)-N^6-(2-fluorophenyl)-[1,2,5]oxadiazolo[3,4-b]pyrazine-5,6-diamine] | – |
| > 20 | COc1ccc(Nc2nc3[nH]c(C(F)(F)F)nc3nc2Nc2ccccc2F)cc1 [Compound 12r, N^5-(2-fluorophenyl)-N^6-(4-methoxyphenyl)-2-(trifluoromethyl)-1H-imidazo[4,5-b]pyrazine-5,6-diamine] | – |
| < 5 | COC(=O)c1ccc(Nc2nc3nonc3nc2Nc2ccccc2F)cc1 [Compound 4y, Methyl 4-((6-((2-fluorophenyl)amino)-[1,2,5]oxadiazolo[3,4-b]pyrazin-5-yl)amino)benzoate] | – |
| < 5 | COC(=O)c1ccc(Nc2nc3nonc3nc2Nc2ccc(C(=O)OC)cc2)cc1 [Compound 3t, Dimethyl 4,4′-([1,2,5]oxadiazolo[3,4-b]pyrazine-5,6-diylbis(azanediyl))dibenzoate] | – |
| < 5 | CCOc1ccc(Nc2nc3nonc3nc2Nc2ccccc2F)cc1 [Compound 4o, N^5-(4-ethoxyphenyl)-N^6-(2-fluorophenyl)-[1,2,5]oxadiazolo[3,4-b]pyrazine-5,6-diamine] | – |
| > 20 | Cn1c(C(F)(F)F)nc2nc(Nc3cccc(F)c3F)c(Nc3cccc(F)c3F)nc21 [Compound 13j, N^5,N^6-bis(2,3-difluorophenyl)-1-methyl-2-(trifluoromethyl)-imidazo[4,5-b]pyrazine-5,6-diamine] | – |
| 5 to 20 | Cn1c(C(F)(F)F)nc2nc(Nc3cc(C(F)(F)F)ccc3F)c(Nc3cc(C(F)(F)F)ccc3F)nc21 [Compound 13b, N^5,N^6-bis(2-fluoro-5-(trifluoromethyl)phenyl)-1-methyl-2-(trifluoromethyl)-imidazo[4,5-b]pyrazine-5,6-diamine] | – |
| > 20 | Cn1c(C(F)(F)F)nc2nc(Nc3ccccc3F)c(NCCC(F)(F)F)nc21 [Compound 13x, 1-Methyl-N^5-(2-fluorophenyl)-N^6-3,3,3-trifluoropropyl-2-(trifluoromethyl)-imidazo[4,5-b]pyrazine-5,6-diamine] | – |
| < 5 | Cc1cccc(Nc2nc3nonc3nc2Nc2cccc(C)c2)c1 [Compound 3b, N^5,N^6-di-m-tolyl-[1,2,5]oxadiazolo[3,4-b]pyrazine-5,6-diamine] | – |
| > 20 | Cn1c(C(F)(F)F)nc2nc(Nc3ccccc3F)c(Nc3cc(C(F)(F)F)cc(C(F)(F)F)c3)nc21 [Compound 13q, 1-Methyl-N^5-(2-fluorophenyl)-N^6-(3,5-bis(trifluoromethyl)phenyl)-2-(trifluoromethyl)-imidazo[4,5-b]pyrazine-5,6-diamine] | – |
| > 20 | Cn1c(C(F)(F)F)nc2nc(Nc3ccccc3F)c(Nc3ccccc3)nc21 [Compound 13s, 1-Methyl-N^5-(2-fluorophenyl)-N^6-phenyl-2-(trifluoromethyl)-imidazo[4,5-b]pyrazine-5,6-diamine] | – |
| < 5 | Fc1cc(Nc2nc3nonc3nc2Nc2ccc(C(F)(F)F)c(F)c2)ccc1C(F)(F)F [Compound 3x, N^5,N^6-bis(3-fluoro-4-(trifluoromethyl)phenyl)-[1,2,5]oxadiazolo[3,4-b]pyrazine-5,6-diamine] | – |
| > 20 | COc1cccc(Nc2nc3nonc3nc2Nc2cccc(OC)c2)c1 [Compound 3e, N^5,N^6-bis(3-methoxyphenyl)-[1,2,5]oxadiazolo[3,4-b]pyrazine-5,6-diamine] | – |
| > 20 | Cc1ccccc1Nc1nc2nonc2nc1Nc1ccccc1C [Compound 3a, N^5,N^6-di-o-tolyl-[1,2,5]oxadiazolo[3,4-b]pyrazine-5,6-diamine] | – |
| 5 to 20 | CNc1nc2nonc2nc1Nc1ccccc1F [Compound 7a, N^5-(2-fluorophenyl)-N^6-methyl-[1,2,5]oxadiazolo[3,4-b]pyrazine-5,6-diamine] | – |
| 5 to 20 | Fc1cccc(Nc2nc3[nH]c(C(F)(F)F)nc3nc2Nc2ccccc2F)c1 [Compound 12o, N^5-(2-fluorophenyl)-N^6-(3-fluorophenyl)-2-(trifluoromethyl)-1H-imidazo[4,5-b]pyrazine-5,6-diamine] | – |
| > 20 | Oc1ccc(F)c(Nc2nc3nonc3nc2Nc2ccccc2F)c1 [Compound 4z, 4-Fluoro-3-((6-((2-fluorophenyl)amino)-[1,2,5]oxadiazolo[3,4-b]pyrazin-5-yl)amino)phenol] | – |
| > 20 | Cn1c(C(F)(F)F)nc2nc(Nc3ccccc3F)c(NC3CCCCC3)nc21 [Compound 13v, 1-Methyl-N^5-(2-fluorophenyl)-N^6-cyclohexyl-2-(trifluoromethyl)-imidazo[4,5-b]pyrazine-5,6-diamine] | – |
| < 5 | FC(F)(F)Oc1ccccc1Nc1nc2nonc2nc1Nc1ccccc1OC(F)(F)F [Compound 3k, N^5,N^6-bis(2-(trifluoromethoxy)phenyl)-[1,2,5]oxadiazolo[3,4-b]pyrazine-5,6-diamine] | – |
| > 20 | Cc1ccc(Nc2nc3nc(C(F)(F)F)[nH]c3nc2Nc2ccc(C)cc2)cc1 [Compound 12k, N^5,N^6-di-p-tolyl-2-(trifluoromethyl)-1H-imidazo[4,5-b]pyrazine-5,6-diamine] | – |
| 5 to 20 | Fc1ccccc1Nc1nc2nc(C(F)(F)F)[nH]c2nc1Nc1cc(C(F)(F)F)cc(C(F)(F)F)c1 [Compound 12q, N^5-(2-fluorophenyl)-N^6-(3,5-bis(trifluoromethyl)phenyl)-2-(trifluoromethyl)-1H-imidazo[4,5-b]pyrazine-5,6-diamine] | – |
| 5 to 20 | Fc1ccccc1Nc1nc2nc(C(F)(F)F)[nH]c2nc1Nc1ccccc1F [Compound 12a, N^5,N^6-bis(2-fluorophenyl)-2-(trifluoromethyl)-1H-imidazo[4,5-b]pyrazine-5,6-diamine] | – |

| Compound | EC50 (whole cells) [µM] | other results |
| --- | --- | --- |
| Fc1cc(C(F)(F)F)ccc1Nc1nc2nonc2nc1Nc1ccc(C(F)(F)F)cc1F [Compound 3w, N^5,N^6-bis(2-fluoro-4-(trifluoromethyl)phenyl)-[1,2,5]oxadiazolo[3,4-b]pyrazine-5,6-diamine] | < 5 | – |
